From patent US10029986B2, “Alkynyl pyridine-substituted amide compound and pesticide” (NISSAN CHEMICAL INDUSTRIES, LTD., priority 2014, dated 2018) come the findings set out here.

SMILES strings stand for the structures. Bounds are passed on as bounds.

Series [1] deals with Erysiphe polygoni (synonym: Erysiphe betae). Kind of series: Test on the preventive effect against cucumber powdery mildew. As to conditions: 216 h, test solution A 500 ppm, 5 ml per pot sprayed, cucumber cotyledon stage, 9 days after inoculation. In kind it is in vivo. In short, it runs like this: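 Cucumber (Sagami Hanjiro) at cotyledon stage sprayed with 500 ppm compound (diluted from 20 wt% emulsifiable concentrate), air-dried, then inoculated with Erysiphe polygoni conidia. Kept 9 days at 20 °C in greenhouse; lesion area ratio scored in duplicate, control value = [1−(treated/untreated lesion ratio)]×100.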

The test system of series [2] is Phaeosphaeria nodorum (Synonym: Septoria nodorum). The series is described as follows: Test on the preventive effect against wheat glume blotch. In kind it is in vivo. Particulars: Parastagonospora nodorum, 144 h; test solution A 500 ppm, 5 ml per pot, wheat 1.3-leaf stage, 2 days inoculation chamber then 6 days at 20° C. Summed up:
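Wheat (cv. Haruyutaka) at 1.3-leaf stage sprayed with compound at 500 ppm as diluted emulsifiable concentrate, then inoculated one day later with conidial suspension. Kept 2 days at 20° C and 100% RH, then 6 days in a greenhouse at 20° C. Control value derived from lesion proportion on inoculated leaves; duplicate.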

Series [3] concerns Botrytis cinerea. Kind of series: Test on the preventive effect against cucumber gray mold (spore inoculation). In kind it is in vivo. As to conditions: 72 h, test solution A 500 ppm, 5 ml per pot, cucumber cut leaves, conidium inoculation, 3 days at 20° C. In short, it runs like this: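 Cotyledon-stage cucumber (Sagami Hanjiro) sprayed with 500 ppm compound from emulsifiable concentrate; detached treated leaves inoculated with B. cinerea conidia in PDA (1:1). After 3 days at 20 °C, humid, lesion proportion gave control value; duplicate test.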

In series [4] the test system is Southern root-knot nematode (Meloidogyne incognita). The series is described as follows: Test on the preventive effect against Southern root-knot nematode (garden balsam seedlings). Particulars: 504 h, test solution B 100 ppm, 1 ml per seedling to base of garden balsam seedlings, 3 weeks in greenhouse, read-out: efficacy (root knot damage degree relative to non-treated plot). In kind it is in vivo. The protocol: Compounds of the present invention were dissolved in dimethyl sulfoxide to prepare 1 wt % solutions. Then, distilled water was added to dilute the solutions to the prescribed concentration (100 ppm), and the obtained solutions were used in the following the Test Examples 9 to 12. 1 ml per seedling of test solution B of the compounds of the present invention was treated to the bases of garden balsam seedlings (about 2 weeks after budding) planted in a cell tray of which each cell was filled with 10 g of soil. 1 hour after the application, 1 ml per cell of water containing Southern root-knot nematode (Meloidogyne incognita) 2 L larvae (100 larvae of 2 L/1 ml) was applied to the base. The tray was placed in a greenhouse for 3 weeks, and the degree of root knot on the root was determined in accordance with the following damage index and the damage degree to calculate the efficacy (%) relative to the non-treated plot in accordance with the following formula. • 0: No knot formation was observed. • 1: Knot formations were observed on parts of the root system. • 2: Knot formations were observed on the entire root system. • 3: Large knot formations were observed. • 4: Large knot formations were observed on the entire root system. [Damage degree]=[Σ(damage index×number of each damaged indexed seedling)/(4×number of seedlings investigated)]×100 Efficacy (%)=[1−(damage degree in treated plot/damage degree in non-treated plot)]×100

The test system of series [5] is Puccinia recondita. The series is described as follows: Test on the preventive effect against wheat leaf rust. In kind it is in vivo. Particulars: 216 h, test solution A 500 ppm, 5 ml per pot, wheat 1.3-leaf stage, 1 day inoculation chamber then 8 days at 20° C. The method, then:
Compounds of the present invention were dissolved in a solvent for emulsion (a mixture of Sorpol (registered trademark) 3005XL (manufactured by Toho Chemical Industry Co., Ltd.): N-methylpyrrolidone: Solvesso (registered trademark) 200 (manufactured by ExxonMobil Chemical) in a ratio of 1:5:2) to prepare 20 wt % emulsifiable concentrates. Then, distilled water was added to dilute the emulsifiable concentrates to the prescribed concentration (500 ppm), and the obtained solutions were used in the following the Test Examples 1 to 8. Wheat (varieties: Norin 61) was seeded in 90 cm^3 plastic pot, and at 1.3-leaf stage, 5 ml per pot of test solution A of the compounds of the present invention was applied. One day after treatment, a suspension of spores of Puccinia recondita was sprayed to the wheat, and the pot was left in the inoculation chamber at 20° C. under humidity of 100% RH for 1 day. Thereafter, the pot was placed in an air-conditioned greenhouse (20° C.) for 8 days. The proportion of the formed lesion in the inoculated leaves were counted to calculate the control value in accordance with the same formula as in the Test Example 1. The test was carried out in duplicate.

Regarding `Cn1cc(C(=O)NCCc2ncc(C#CC(C)(C)C)cc2Cl)c(C(F)F)n1` [8-002], the pest or weed control at 500 µg/mL in series [1], in series [2], in series [3] and in series [5] was not below 70% in each case. The pest or weed control at 100 µg/mL in series [4] was not below 50%.
Take `CSC(CNC(=O)c1cccnc1C(F)F)c1ncc(C#CC2CC2)cc1Cl` (stereo not drawn) [3-020]: the pest or weed control at 500 µg/mL in series [1], in series [2], in series [3] and in series [5] was not below 70% throughout. The pest or weed control at 100 µg/mL in series [4] is not below 50%.
For the molecule `Cn1cc(C(=O)NCC(c2ncc(C#CC3CC3)cc2Cl)C2CC2)c(C(F)F)n1` (stereo not drawn) [8-009], the pest or weed control at 500 µg/mL in series [1], in series [2], in series [3] and in series [5] was not below 70% each time. In addition, the pest or weed control at 100 µg/mL in series [4] was not below 50%.
Regarding `O=C(NCCc1ncc(C#CC2CC2)cc1Cl)c1cccnc1C(F)F` [3-001, N-[2-[3-chloro-5-(cyclopropylethynyl)pyridin-2-yl]ethyl]-2-(difluoromethyl)nicotinamide], the melting point was 114 to 117 °C. In series [1], this molecule came in with a pest or weed control at 500 µg/mL not below 70%. In series [2], this molecule yielded a pest or weed control at 500 µg/mL not below 70%. Also, in series [3], the pest or weed control at 500 µg/mL is not below 70%. Also, the pest or weed control at 100 µg/mL in series [4] was not below 50%. Moreover, the pest or weed control at 500 µg/mL in series [5] was not below 70%.
With `O=C(NCC(c1ncc(C#CC2CC2)cc1Cl)C1CC1)c1cccnc1C(F)F` (stereo not drawn) [3-008], the pest or weed control at 500 µg/mL in series [1], in series [2], in series [3] and in series [5] was not below 70% in each case. In addition, the pest or weed control at 100 µg/mL in series [4] is not below 50%.
Take `Cn1cc(C(=O)NCCc2ncc(C#CC3CC3)cc2Cl)c(C(F)F)n1` [8-001]: the melting point is 96 to 98 °C. In series [1], this molecule had a pest or weed control at 500 µg/mL not below 70%. The same molecule came in with a pest or weed control at 500 µg/mL in series [2] not below 70%. Moreover, the pest or weed control at 500 µg/mL in series [3] was not below 70%. In addition, the pest or weed control at 100 µg/mL in series [4] is not below 50%. The molecule also had a pest or weed control at 500 µg/mL in series [5] not below 70%.
`CC(CNC(=O)c1cn(C)nc1C(F)F)c1ncc(C#CC2CC2)cc1Cl` (stereo not drawn) [8-007]: the pest or weed control at 500 µg/mL in series [1], in series [2], in series [3] and in series [5] was not below 70% throughout. Further, in series [4], the pest or weed control at 100 µg/mL was not below 50%.
Turning to `CC(NC(=O)c1ccccc1C(F)(F)F)C(OCc1ccccc1)c1ncc(C#CC2CC2)cc1Cl` (stereo not drawn) [1-031, N-[2-benzyloxy-2-[3-chloro-5-(cyclopropylethynyl)pyridin-2-yl]-1-methylethyl]-2-(trifluoromethyl)benzamide], the pest or weed control at 500 µg/mL in series [1], in series [2], in series [3] and in series [5] was not below 70% in each case.
`C=C(CNC(=O)c1cn(C)nc1C(F)F)c1ncc(C#CC2CC2)cc1Cl` [8-011, N-[2-[3-chloro-5-(cyclopropylethynyl)pyridin-2-yl]-2-propenyl]-3-difluoromethyl-1-methyl-1H-pyrazole-4-carboxamide] gave a melting point of 66 to 70 °C. In series [1], this molecule returned a pest or weed control at 500 µg/mL not below 70%. Further, the pest or weed control at 500 µg/mL in series [2] is not below 70%. This molecule showed a pest or weed control at 500 µg/mL in series [3] not below 70%. The molecule also displayed a pest or weed control at 500 µg/mL in series [5] not below 70%.
In turn, `CC(C)(C)C#Cc1cnc(CCNC(=O)c2cccnc2C(F)F)c(Cl)c1` [3-002] displayed a melting point of 144 to 146 °C. The molecule also came in with a pest or weed control at 500 µg/mL in series [1] not below 70%. In addition, in series [2], the pest or weed control at 500 µg/mL is not below 70%. Also, the pest or weed control at 500 µg/mL in series [3] is not below 70%. In addition, in series [4], the pest or weed control at 100 µg/mL was not below 50%. In addition, the pest or weed control at 500 µg/mL in series [5] is not below 70%.
In the case of `COC(c1ncc(C#CC2CC2)cc1Cl)C(C)NC(=O)c1ccccc1C(F)(F)F` (stereo not drawn) [1-024], the pest or weed control at 500 µg/mL in series [1], in series [2], in series [3] and in series [5] was not below 70% in each case. In addition, in series [4], the pest or weed control at 100 µg/mL is not below 50%.
`COC(c1ncc(C#CC2CC2)cc1Cl)C(C)NC(=O)c1cccnc1C(F)F` (stereo not drawn) [3-021]: the pest or weed control at 500 µg/mL in series [1], in series [2], in series [3] and in series [5] was not below 70% each time. Moreover, the pest or weed control at 100 µg/mL in series [4] was not below 50%.
For `COC(c1ncc(C#CC(C)(C)C)cc1Cl)C(C)NC(=O)c1ccccc1C(F)(F)F` (stereo not drawn) [1-025], the melting point lay within 36 to 38 °C. Also, in series [1], the pest or weed control at 500 µg/mL was not below 70%. Further, in series [2], the pest or weed control at 500 µg/mL was not below 70%. This molecule also came in with a pest or weed control at 500 µg/mL in series [3] not below 70%. In addition, the pest or weed control at 100 µg/mL in series [4] is not below 50%. In series [5], this molecule registered a pest or weed control at 500 µg/mL not below 70%.
`CC(Cc1ncc(C#CC2CC2)cc1Cl)NC(=O)c1cn(C)nc1C(F)F` (stereo not drawn) [8-024, N-[2-[3-chloro-5-(cyclopropylethynyl)pyridin-2-yl]-1-methylethyl]-3-difluoromethyl-1-methyl-1H-pyrazole-4-carboxamide] had a melting point of 127 to 130 °C. Moreover, the pest or weed control at 500 µg/mL in series [1] is not below 70%. This molecule also came in with a pest or weed control at 500 µg/mL in series [2] not below 70%. Moreover, the pest or weed control at 500 µg/mL in series [3] is not below 70%. In series [5], this molecule gave a pest or weed control at 500 µg/mL not below 70%.
As to `CC(Cc1ncc(C#Cc2ccccc2)cc1Cl)NC(=O)c1cn(C)nc1C(F)F` (stereo not drawn) [8-027], the pest or weed control at 500 µg/mL in series [1], in series [2], in series [3] and in series [5] was not below 70% throughout.
Take `COC(c1ncc(C#CC2CC2)cc1Cl)C(C)NC(=O)c1nccnc1C(F)(F)F` (stereo not drawn) [4-004]: the pest or weed control at 500 µg/mL in series [1], in series [2], in series [3] and in series [5] was not below 70% throughout.
On to `O=C(NCC(F)(F)c1ncc(C#CC2CC2)cc1Cl)c1cccnc1C(F)F` [3-003, N-[2-[3-chloro-5-(cyclopropylethynyl)pyridin-2-yl]-2,2-difluoroethyl]-2-(difluoromethyl)nicotinamide], for which the melting point was 116 to 118 °C. The molecule further registered a pest or weed control at 500 µg/mL in series [1] not below 70%. The molecule further had a pest or weed control at 500 µg/mL in series [2] not below 70%. Also, the pest or weed control at 500 µg/mL in series [3] was not below 70%. Also, in series [4], the pest or weed control at 100 µg/mL is not below 50%. In series [5], this molecule gave a pest or weed control at 500 µg/mL not below 70%.
